Patent publication US10894784B2, “Heteroarylbenzimidazole compounds” (BAYER PHARMA AKTIENGESELLSCHAFT, priority 2015, dated 2021)

These molecules were tested against TBK1 (Homo sapiens (Human), UniProt Q9UHD2) (assay: TBK1 low ATP kinase assay (in vitro assay 1)). Details: in vitro assay 1, read-out: TBK1 low ATP kinase assay IC50.
TBK1, sequence (Q9UHD2 whole entry): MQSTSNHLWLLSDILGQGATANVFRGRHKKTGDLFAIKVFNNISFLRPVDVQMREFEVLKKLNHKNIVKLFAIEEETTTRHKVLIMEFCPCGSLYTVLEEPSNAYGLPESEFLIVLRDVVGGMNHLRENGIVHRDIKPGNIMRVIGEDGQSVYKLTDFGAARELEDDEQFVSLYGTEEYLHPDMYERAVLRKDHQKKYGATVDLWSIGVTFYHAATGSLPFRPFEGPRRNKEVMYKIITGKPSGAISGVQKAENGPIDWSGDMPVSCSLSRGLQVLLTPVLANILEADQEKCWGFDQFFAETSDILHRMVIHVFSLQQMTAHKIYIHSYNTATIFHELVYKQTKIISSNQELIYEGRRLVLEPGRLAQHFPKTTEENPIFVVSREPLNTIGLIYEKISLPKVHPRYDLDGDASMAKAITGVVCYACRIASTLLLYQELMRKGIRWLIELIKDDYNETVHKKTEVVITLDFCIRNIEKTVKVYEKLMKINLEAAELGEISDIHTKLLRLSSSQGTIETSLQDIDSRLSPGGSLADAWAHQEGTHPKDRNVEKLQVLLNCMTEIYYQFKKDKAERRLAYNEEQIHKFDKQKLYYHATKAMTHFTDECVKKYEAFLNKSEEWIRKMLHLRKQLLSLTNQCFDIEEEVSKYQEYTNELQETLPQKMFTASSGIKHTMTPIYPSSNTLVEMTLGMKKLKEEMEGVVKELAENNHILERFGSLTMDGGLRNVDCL
Format: biochemical
Molecule CC(C)(C)OC(=O)N1CCN(Cc2ccnc(Nc3nc4ccc(-c5ccnc(C(F)F)c5)cc4[nH]3)c2)CC1 [Example 139.01, tert-butyl 4-{[2-({6-[2-(difluoromethyl)pyridin-4-yl]-1H-benzimidazol-2-yl}amino)pyridin-4-yl]methyl}piperazine-1-carboxylate] has an IC50 of 55 nM. For O=C(CC(F)(F)F)N1CCN(Cc2ccnc(Nc3nc4ccc(-c5ccnc(C(F)F)c5)cc4[nH]3)c2)CC1 [Example 139.02, 1-(4-{[2-({6-[2-(difluoromethyl)pyridin-4-yl]-1H-benzimidazol-2-yl}amino)pyridin-4-yl]methyl}piperazin-1-yl)-3,3,3-trifluoropropan-1-one], the IC50 was 15 nM. O=C(C1CC1)N1CCN(Cc2ccnc(Nc3nc4ccc(-c5ccnc(C(F)F)c5)cc4[nH]3)c2)CC1 [Example 139.03, cyclopropyl(4-{[2-({6-[2-(difluoromethyl)pyridin-4-yl]-1H-benzimidazol-2-yl}amino)pyridin-4-yl]methyl}piperazin-1-yl)methanone] gave an IC50 of 9.7 nM. CC(C)(C)OC(=O)N1CCN(Cc2ccnc(Nc3nc4ccc(-c5cnc(Br)cn5)cc4[nH]3)c2)CC1 [Example 140.01, tert-butyl 4-[(2-{[6-(5-bromopyrazin-2-yl)-1H-benzimidazol-2-yl]amino}pyridin-4-yl)methyl]piperazine-1-carboxylate] was tested, and the IC50 was 13 nM. For O=C(CC(F)(F)F)N1CCN(Cc2ccnc(Nc3nc4ccc(-c5cnc(Cl)cn5)cc4[nH]3)c2)CC1 [Example 140.02, 1-{4-[(2-{[6-(5-chloropyrazin-2-yl)-1H-benzimidazol-2-yl]amino}pyridin-4-yl)methyl]piperazin-1-yl}-3,3,3-trifluoropropan-1-one], the IC50 was 540 nM. Molecule O=C(C1CC1)N1CCN(Cc2ccnc(Nc3nc4ccc(-c5cnc(Cl)cn5)cc4[nH]3)c2)CC1 [Example 140.03, {4-[(2-{[6-(5-chloropyrazin-2-yl)-1H-benzimidazol-2-yl]amino}pyridin-4-yl)methyl]piperazin-1-yl}(cyclopropyl)methanone] has an IC50 of 290 nM. Work on CN(CC1CC1)c1cc(-c2ccc3nc(Nc4cc(CN5CCN(C(=O)OC(C)(C)C)CC5)ccn4)[nH]c3c2)ncn1 [Example 141.01, tert-butyl 4-({2-[(6-{6-[(cyclopropylmethyl)(methyl)amino]pyrimidin-4-yl}-1H-benzimidazol-2-yl)amino]pyridin-4-yl}methyl)piperazin-1-carboxylate] yielded an IC50 of 43 nM. Molecule CN(CC1CC1)c1cc(-c2ccc3nc(Nc4cc(CN5CCN(C(=O)CC(F)(F)F)CC5)ccn4)[nH]c3c2)ncn1 [Example 141.02, 1-[4-({2-[(6-{6-[(cyclopropylmethyl)(methyl)amino]pyrimidin-4-yl}-1H-benzimidazol-2-yl)amino]pyridin-4-yl}methyl)piperazin-1-yl]-3,3,3-trifluoropropan-1-one] has an IC50 of 19 nM. Molecule CN(CC1CC1)c1cc(-c2ccc3nc(Nc4cc(CN5CCN(C(=O)C6CC6)CC5)ccn4)[nH]c3c2)ncn1 [Example 141.03, cyclopropyl[4-({2-[(6-{6-[(cyclopropylmethyl)(methyl)amino]pyrimidin-4-yl}-1H-benzimidazol-2-yl)amino]pyridin-4-yl}methyl)piperazin-1-yl]methanone] has an IC50 of 13 nM. Molecule CC(C)(C)OC(=O)N1CCN(Cc2ccnc(Nc3nc4ccc(-c5cc(NCC6CC6)ncn5)cc4[nH]3)c2)CC1 [Example 142.01, tert-butyl 4-({2-[(6-{6-[(cyclopropylmethyl)amino]pyrimidin-4-yl}-1H-benzimidazol-2-yl)amino]pyridin-4-yl}methyl)piperazine-1-carboxylate] has an IC50 of 7.5 nM. O=C(CC(F)(F)F)N1CCN(Cc2ccnc(Nc3nc4ccc(-c5cc(NCC6CC6)ncn5)cc4[nH]3)c2)CC1 [Example 142.02, 1-[4-({2-[(6-{6-[(cyclopropylmethyl)amino]pyrimidin-4-yl}-1H-benzimidazol-2-yl)amino]pyridin-4-yl}methyl)piperazin-1-yl]-3,3,3-trifluoropropan-1-one] gave an IC50 of 6.6 nM. O=C(C1CC1)N1CCN(Cc2ccnc(Nc3nc4ccc(-c5cc(NCC6CC6)ncn5)cc4[nH]3)c2)CC1 [Example 142.03, cyclopropyl[4-({2-[(6-{6-[(cyclopropylmethyl)amino]pyrimidin-4-yl}-1H-benzimidazol-2-yl)amino]pyridin-4-yl}methyl)piperazin-1-yl]methanone] was tested, and the IC50 was 3 nM. With CN(C)c1cc(-c2ccc3nc(Nc4cc(CN5CCN(C(=O)OC(C)(C)C)CC5)ccn4)[nH]c3c2)ncn1 [Example 143.01, tert-butyl 4-{[2-({6-[6-(dimethylamino)pyrimidin-4-yl]-1H-benzimidazol-2-yl}amino)pyridin-4-yl]methyl}piperazine-1-carboxylate] the IC50 was 18 nM. Molecule CN(C)c1cc(-c2ccc3nc(Nc4cc(CN5CCN(C(=O)CC(F)(F)F)CC5)ccn4)[nH]c3c2)ncn1 [Example 143.02, 1-(4-{[2-({6-[6-(dimethylamino)pyrimidin-4-yl]-1H-benzimidazol-2-yl}amino)pyridin-4-yl]methyl}piperazin-1-yl)-3,3,3-trifluoropropan-1-one] has an IC50 of 8.2 nM. CN(C)c1cc(-c2ccc3nc(Nc4cc(CN5CCN(C(=O)C6CC6)CC5)ccn4)[nH]c3c2)ncn1 [Example 143.03, cyclopropyl(4-{[2-({6-[6-(dimethylamino)pyrimidin-4-yl]-1H-benzimidazol-2-yl}amino)pyridin-4-yl]methyl}piperazin-1-yl)methanone] was tested, and the IC50 was 4.8 nM. CN(C)c1cnc(-c2ccc3nc(Nc4cc(CN5CCN(C(=O)OC(C)(C)C)CC5)ccn4)[nH]c3c2)cn1 [Example 144.01, tert-butyl 4-{[2-({6-[5-(dimethylamino)pyrazin-2-yl]-1H-benzimidazol-2-yl}amino)pyridin-4-yl]methyl}piperazine-1-carboxylate] showed an IC50 of 510 nM. Work on CN(C)c1cnc(-c2ccc3nc(Nc4cc(CN5CCN(C(=O)CC(F)(F)F)CC5)ccn4)[nH]c3c2)cn1 [Example 144.02, 1-(4-{[2-({6-[5-(dimethylamino)pyrazin-2-yl]-1H-benzimidazol-2-yl}amino)pyridin-4-yl]methyl}piperazin-1-yl)-3,3,3-trifluoropropan-1-one] yielded an IC50 of 350 nM. Molecule CN(C)c1cnc(-c2ccc3nc(Nc4cc(CN5CCN(C(=O)C6CC6)CC5)ccn4)[nH]c3c2)cn1 [Example 144.03, cyclopropyl(4-{[2-({6-[5-(dimethylamino)pyrazin-2-yl]-1H-benzimidazol-2-yl}amino)pyridin-4-yl]methyl}piperazin-1-yl)methanone] has an IC50 of 440 nM. Work on CC(C)(C)OC(=O)N1CCN(Cc2ccnc(Nc3nc4ccc(-c5cc(N6CCCCC6)ncn5)cc4[nH]3)c2)CC1 [Example 145.01, tert-butyl 4-{[2-({6-[6-(piperidin-1-yl)pyrimidin-4-yl]-1H-benzimidazol-2-yl}amino)pyridin-4-yl]methyl}piperazine-1-carboxylate] yielded an IC50 of 13 nM. Work on O=C(CC(F)(F)F)N1CCN(Cc2ccnc(Nc3nc4ccc(-c5cc(N6CCCCC6)ncn5)cc4[nH]3)c2)CC1 [Example 145.02, 3,3,3-trifluoro-1-(4-{[2-({6-[6-(piperidin-1-yl)pyrimidin-4-yl]-1H-benzimidazol-2-yl}amino)pyridin-4-yl]methyl}piperazin-1-yl)propan-1-one] yielded an IC50 of 2.9 nM. O=C(C1CC1)N1CCN(Cc2ccnc(Nc3nc4ccc(-c5cc(N6CCCCC6)ncn5)cc4[nH]3)c2)CC1 [Example 145.03, cyclopropyl(4-{[2-({6-[6-(piperidin-1-yl)pyrimidin-4-yl]-1H-benzimidazol-2-yl}amino)pyridin-4-yl]methyl}piperazin-1-yl)methanone] was tested, and the IC50 was 2.1 nM. CN(CC(F)(F)F)c1cc(-c2ccc3nc(Nc4cc(CN5CCN(C(=O)OC(C)(C)C)CC5)ccn4)[nH]c3c2)ncn1 [Example 146.01, tert-butyl 4-({2-[(6-{6-[methyl(2,2,2-trifluoroethyl)amino]pyrimidin-4-yl}-1H-benzimidazol-2-yl)amino]pyridin-4-yl}methyl)piperazine-1-carboxylate] was tested, and the IC50 was 14 nM. In the case of CN(CC(F)(F)F)c1cc(-c2ccc3nc(Nc4cc(CN5CCN(C(=O)CC(F)(F)F)CC5)ccn4)[nH]c3c2)ncn1 [Example 146.02, 3,3,3-trifluoro-1-[4-({2-[(6-{6-[methyl(2,2,2-trifluoroethyl)amino]pyrimidin-4-yl}-1H-benzimidazol-2-yl)amino]pyridin-4-yl}methyl)piperazin-1-yl]propan-1-one], the IC50 is reported as 9.8 nM. O=C(CC(F)(F)F)N1CCN(Cc2ccnc(Nc3nc4ccc(-c5cc(N6CCC6)ncn5)cc4[nH]3)c2)CC1 [Example 147.02, 1-(4-{[2-({6-[6-(azetidin-1-yl)pyrimidin-4-yl]-1H-benzimidazol-2-yl}amino)pyridin-4-yl]methyl}piperazin-1-yl)-3,3,3-trifluoropropan-1-one] was tested, and the IC50 was 1.8 nM. CCN(C)c1cc(-c2ccc3nc(Nc4cc(CN5CCN(C(=O)OC(C)(C)C)CC5)ccn4)[nH]c3c2)ncn1 [Example 148.01, tert-butyl 4-({2-[(6-{6-[ethyl(methyl)amino]pyrimidin-4-yl}-1H-benzimidazol-2-yl)amino]pyridin-4-yl}methyl)piperazine-1-carboxylate] gave an IC50 of 25 nM. In the case of CCN(C)c1cc(-c2ccc3nc(Nc4cc(CN5CCN(C(=O)CC(F)(F)F)CC5)ccn4)[nH]c3c2)ncn1 [Example 148.02, 1-[4({2-[(6-{6-[ethyl(methyl)amino]pyrimidin-4-yl}-1H-benzimidazol-2-yl)amino]pyridin-4-yl}methyl)piperazin-1-yl]-3,3,3-trifluoropropan-1-one], the IC50 is reported as 6.5 nM. CCN(C)c1cc(-c2ccc3nc(Nc4cc(CN5CCN(C(=O)C6CC6)CC5)ccn4)[nH]c3c2)ncn1 [Example 148.03, cyclopropyl[4-({2-[(6-{6-[ethyl(methyl)amino]pyrimidin-4-yl}-1H-benzimidazol-2-yl)amino]pyridin-4-yl}methyl)piperazin-1-yl]methanone] gave an IC50 of 4.8 nM. With CCNc1cc(-c2ccc3nc(Nc4cc(CN5CCN(C(=O)OC(C)(C)C)CC5)ccn4)[nH]c3c2)ncn1 [Example 149.01, tert-butyl 4-{[2-({6-[6-(ethylamino)pyrimidin-4-yl]-1H-benzimidazol-2-yl}amino)pyridin-4-yl]methyl}piperazine-1-carboxylate] the IC50 was 4.7 nM.
